Experimental data taken from patent publication US11713335B2, “Aminocoumarin compounds and methods of their use” (President and Fellows of Harvard College, priority 2018, dated 2023).
In brackets after ≈: the same amount, converted by molar mass. Where two headings read alike, the source gives them in different places.

How the values were obtained:
Type in all cases: cell-based
E. cloacae 13047 = experiment: Minimal inhibitory concentration, E. cloacae 13047; conditions: 16 hour minimal inhibitory concentration at 37° C., read-out: MIC (μM) E. cloacae 13047
Procedure: (§1) General Procedure for Determination of Minimal Inhibitory Concentrations
(§2) Overnight cultures (5 mL) of bacterial strains were grown in LB media or TSA media (for S. aureus) at 37° C. and with shaking at 220 rpm until saturation. The overnight culture was diluted serially 1:100 (50 μL in 5 mL sterile media) and then 1:100 (250 μL in 25 mL sterile media). The 25 mL of diluted culture was then dispensed to a sterile 96 well plate (Corning #3370). 198 μL of culture were dispensed into row A and 100 μL of this culture were dispensed into rows B-H. Aminocoumarin compound (DMSO stock) were added to the first row and then the row was mixed by pipetting. 100 μL of culture from row A were transferred to row B and the serial dilution continued until the final 100 μL from row H were discarded. The plate was incubated without shaking in a 37° C. for 16 hours and then read by visible light spectrophotometer (Molecular Devices) at 600 nm. The minimal inhibitory concentration (MIC) was determined as the lowest concentration of compound concentration that inhibited the growth of bacteria.
(§3) The compounds of the invention were assessed for activities against the pathogens S. aureus RN4220 and MW2, E. cloacae 13047, A. baumannii 19606, K. pneumoniae 700721, E. coli MC4100, 25922. All activities are reported in micromolar (uM) and are 16 hour minimal inhibitory concentrations at 37° C. The assay is detailed in Example 11 and is titled “General Procedure for Determination of Minimal Inhibitory Concentrations.”

E. coli 25922 = experiment: Minimal inhibitory concentration, E. coli 25922; conditions: 16 hour minimal inhibitory concentration at 37° C., read-out: MIC (μM) E. coli 25922
Procedure: as §1, §2, §3

S. aureus RN4220 = experiment: Minimal inhibitory concentration, S. aureus RN4220; conditions: 16 hour minimal inhibitory concentration at 37° C., read-out: MIC (μM) S. aureus RN4220
Procedure: as §1, §2, §3

S. aureus MW2 = experiment: Minimal inhibitory concentration, S. aureus MW2; conditions: read-out: MIC (μM) S. aureus MW2 (MRSA)
Procedure: as §1, §2, §3

A. baumannii 19606 = experiment: Minimal inhibitory concentration, A. baumannii 19606; conditions: 16 hour minimal inhibitory concentration at 37° C., read-out: MIC (μM) A. baumannii 19606
Procedure: as §1, §2, §3

K. pneumoniae 700721 = experiment: Minimal inhibitory concentration, K. pneumoniae 700721; conditions: 16 hour minimal inhibitory concentration at 37° C., read-out: MIC (μM) K. pneumoniae 700721
Procedure: as §1, §2, §3

E. coli MC4100 = experiment: Minimal inhibitory concentration, E. coli MC4100; conditions: 16 hour minimal inhibitory concentration at 37° C., read-out: MIC (μM) E. coli MC4100 ara+
Procedure: as §1, §2, §3

[1] = Staphylococcus aureus, RN4220, 16 h
[2] = Staphylococcus aureus, MRSA, 16 h, 16 hour minimal inhibitory concentration at 37° C.
[3] = Acinetobacter baumannii, 19606, 16 h
[4] = 16 hour minimal inhibitory concentration at 37° C.
[5] = Staphylococcus aureus, MRSA, 16 h

Row | Structure (SMILES) | MIC (E. cloacae 13047; Enterobacter cloacae, 13047) [µM] | MIC (E. coli 25922; Escherichia coli, 25922, 16 h) [µM] | MIC (S. aureus RN4220; [1]) [µM] | MIC (S. aureus MW2; [2]) [µM] | MIC (A. baumannii 19606; [3]) [µM] | MIC (K. pneumoniae 700721; Klebsiella pneumoniae, 700721) [µM] | MIC (E. coli MC4100; Escherichia coli, MC4100, 16 h) [µM] | MIC (E. cloacae 13047) [µM] | MIC (E. coli 25922) [µM] | MIC (S. aureus RN4220) [µM] | MIC (S. aureus MW2; [4]) [µM] | MIC (A. baumannii 19606) [µM] | MIC (K. pneumoniae 700721) [µM] | MIC (E. coli MC4100) [µM] | MIC (E. coli 25922; Escherichia coli, 25922) [µM] | MIC (S. aureus MW2; [5]) [µM] | MIC (A. baumannii 19606; Acinetobacter baumannii, 19606) [µM] | MIC (E. coli MC4100; Escherichia coli, MC4100) [µM]
1 | CO[C@@H]1[C@@H](OC(N)=O)[C@@H](O)[C@H](Oc2ccc3c(O)c(NC(=O)c4cccc(Oc5ccc(C)cc5)c4)c(=O)oc3c2C)OC1(C)C [Compound 221] | > 100 | 5 (≈ 3.17 µg/mL) | 10 (≈ 6.35 µg/mL) | 10 (≈ 6.35 µg/mL) | > 50 | > 100 | 10 (≈ 6.35 µg/mL) | – | – | – | – | – | – | – | – | – | – | –
2 | CO[C@@H]1[C@@H](O)[C@@H](OC(=O)c2ccc[nH]2)[C@H](Oc2ccc3c(O)c(NC(=O)c4ccc(O)c(CC=C(C)C)c4)c(=O)oc3c2C)OC1(C)C [Compound 113] | – | – | – | – | – | – | – | >100 | >200 | 0.5 (≈ 0.331 µg/mL) | 0.24 (≈ 0.159 µg/mL) | 2 (≈ 1.33 µg/mL) | >100 | >200 | – | – | – | –
3 | CO[C@@H]1[C@@H](OC(N)=O)[C@@H](O)[C@H](Oc2ccc3c(O)c(NC(=O)c4cccc(Oc5ccccc5C)c4)c(=O)oc3c2C)OC1(C)C [Compound 220] | > 100 | 160 (≈ 102 µg/mL) | 10 (≈ 6.35 µg/mL) | 10 (≈ 6.35 µg/mL) | > 50 | > 100 | 158 (≈ 100 µg/mL) | – | – | – | – | – | – | – | – | – | – | –
4 | CO[C@@H]1[C@@H](OC(N)=O)[C@@H](O)[C@H](Oc2ccc3c(O)c(NC(=O)c4cccc(Oc5cccc(C)c5)c4)c(=O)oc3c2C)OC1(C)C [Compound 247] | > 100 | 39 (≈ 24.8 µg/mL) | 10 (≈ 6.35 µg/mL) | 5 (≈ 3.17 µg/mL) | > 50 | > 100 | 18 (≈ 11.4 µg/mL) | – | – | – | – | – | – | – | – | – | – | –
5 | CO[C@@H]1[C@@H](OC(N)=O)[C@@H](O)[C@H](Oc2ccc3c(O)c(NC(=O)c4cccc(-c5cccc(Br)c5)c4)c(=O)oc3c2C)OC1(C)C [Compound 234] | > 100 | 18 (≈ 12.3 µg/mL) | 0.73 (≈ 0.499 µg/mL) | 0.46 (≈ 0.314 µg/mL) | 18 (≈ 12.3 µg/mL) | > 100 | 18 (≈ 12.3 µg/mL) | – | – | – | – | – | – | – | – | – | – | –
6 | C#Cc1ccc(C(=O)Nc2c(O)c3ccc(O[C@@H]4OC(C)(C)[C@H](OC)[C@@H](OC(N)=O)[C@H]4O)c(C)c3oc2=O)cc1Oc1ccccc1 [Compound 257] | > 100 | 19 (≈ 12.2 µg/mL) | 5 (≈ 3.22 µg/mL) | 5 (≈ 3.22 µg/mL) | > 50 | 71 (≈ 45.8 µg/mL) | 39 (≈ 25.1 µg/mL) | – | – | – | – | – | – | – | – | – | – | –
7 | CO[C@@H]1[C@@H](OC(N)=O)[C@@H](O)[C@H](Oc2ccc3c(OCCO)c(NC(=O)c4ccc(O)c(CC=C(C)C)c4)c(=O)oc3c2C)OC1(C)C [Compound 215] | > 100 | – | 38 (≈ 25 µg/mL) | – | – | > 100 | – | – | – | – | – | – | – | – | > 200 | 19 (≈ 12.5 µg/mL) | > 50 | > 200
8 | CO[C@@H]1[C@@H](OC(N)=O)[C@@H](O)[C@H](Oc2ccc3c(O)c(NC(=O)c4cccc(Oc5ccc(Cl)cc5)c4)c(=O)oc3c2C)OC1(C)C [Compound 243] | > 100 | 38 (≈ 24.9 µg/mL) | 10 (≈ 6.55 µg/mL) | 10 (≈ 6.55 µg/mL) | > 50 | > 100 | 4.8 (≈ 3.14 µg/mL) | – | – | – | – | – | – | – | – | – | – | –
9 | CO[C@@H]1[C@@H](OC(N)=O)[C@@H](O)[C@H](Oc2ccc3c(O)c(NC(=O)c4cc(Oc5ccccc5)ccn4)c(=O)oc3c2C)OC1(C)C [Compound 239] | > 100 | > 200 | 20 (≈ 12.4 µg/mL) | 20 (≈ 12.4 µg/mL) | > 50 | > 100 | > 200 | – | – | – | – | – | – | – | – | – | – | –
10 | CO[C@@H]1[C@H]2OP(=O)(c3ccccc3)O[C@H]2[C@H](Oc2ccc3c(O)c(NC(=O)c4ccc(O)c(CC=C(C)C)c4)c(=O)oc3c2C)OC1(C)C (stereo partly drawn) [Compound 208] | > 100 | > 200 | > 100 | > 100 | > 50 | > 100 | > 200 | – | – | – | – | – | – | – | – | – | – | –
11 | CO[C@@H]1[C@@H](OC(N)=O)[C@@H](O)[C@H](Oc2ccc3c(O)c(NC(=O)c4ccc(C(=O)c5ccccc5)cc4)c(=O)oc3c2C)OC1(C)C [Compound 233] | > 100 | > 200 | 40 (≈ 25.3 µg/mL) | 40 (≈ 25.3 µg/mL) | > 50 | > 100 | > 200 | – | – | – | – | – | – | – | – | – | – | –
12 | CO[C@@H]1[C@@H](O)[C@@H](OC(=O)NC(C)(C)C)[C@H](Oc2ccc3c(O)c(NC(=O)c4ccc(O)c(CC=C(C)C)c4)c(=O)oc3c2C)OC1(C)C [Compound 106] | – | – | – | – | – | – | – | >100 | >200 | >100 | >100 | >50 | >100 | >200 | – | – | – | –
13 | CO[C@@H]1[C@@H](OC(N)=O)[C@@H](O)[C@H](Oc2ccc3c(O)c(NC(=O)c4ccccc4Br)c(=O)oc3c2C)OC1(C)C [Compound 231] | > 100 | > 200 | > 100 | > 100 | > 50 | > 100 | > 200 | – | – | – | – | – | – | – | – | – | – | –
14 | CCCOCCOCC#Cc1ccc(C(=O)Nc2c(O)c3ccc(O[C@@H]4OC(C)(C)[C@H](OC)[C@@H](OC(N)=O)[C@H]4O)c(C)c3oc2=O)cc1 [Compound 226] | > 100 | > 200 | > 100 | > 100 | > 50 | > 100 | > 200 | – | – | – | – | – | – | – | – | – | – | –
15 | CO[C@@H]1[C@@H](OC(N)=O)[C@@H](O)[C@H](Oc2ccc3c(OCC4CO4)c(NC(=O)c4ccc(O)c(CC=C(C)C)c4)c(=O)oc3c2C)OC1(C)C (stereo partly drawn) [Compound 217] | > 100 | > 200 | 19 (≈ 12.7 µg/mL) | 9 (≈ 6.02 µg/mL) | > 50 | > 100 | > 200 | – | – | – | – | – | – | – | – | – | – | –
16 | Cc1c(O)ccc2c(O)c(NC(=O)c3ccc(I)c(-c4ccccc4)c3)c(=O)oc12 [Compound 228] | > 100 | > 200 | 97 (≈ 49.8 µg/mL) | 97 (≈ 49.8 µg/mL) | > 50 | > 100 | > 200 | – | – | – | – | – | – | – | – | – | – | –
17 | CO[C@@H]1[C@@H](OC(N)=O)[C@@H](O)[C@H](Oc2ccc3c(O)c(NC(=O)c4ccc(I)c(-c5ccccc5)c4)c(=O)oc3c2C)OC1(C)C [Compound 227] | > 100 | 34 (≈ 24.8 µg/mL) | 4 (≈ 2.92 µg/mL) | 4 (≈ 2.92 µg/mL) | > 50 | 34 (≈ 24.8 µg/mL) | 9 (≈ 6.57 µg/mL) | – | – | – | – | – | – | – | – | – | – | –
18 | CO[C@@H]1[C@@H](OC(N)=O)[C@@H](O)[C@H](Oc2ccc3c(O)c(NC(=O)c4ccc(F)c(CC=C(C)C)c4)c(=O)oc3c2C)OC1(C)C [Compound 101] | > 100 | – | 2 (≈ 1.23 µg/mL) | – | – | 81 (≈ 49.8 µg/mL) | – | – | – | – | – | – | – | – | 20 (≈ 12.3 µg/mL) | 1 (≈ 0.615 µg/mL) | 41 (≈ 25.2 µg/mL) | 20 (≈ 12.3 µg/mL)
19 | CO[C@@H]1[C@@H](OC(N)=O)[C@@H](O)[C@H](Oc2ccc3c(O)c(NC(=O)c4ccc(Br)c(Oc5ccccc5)c4)c(=O)oc3c2C)OC1(C)C [Compound 258] | > 100 | 18 (≈ 12.6 µg/mL) | 5 (≈ 3.5 µg/mL) | 4.5 (≈ 3.15 µg/mL) | > 50 | 20 (≈ 14 µg/mL) | 4.5 (≈ 3.15 µg/mL) | – | – | – | – | – | – | – | – | – | – | –
20 | CO[C@@H]1[C@@H](OC(N)=O)[C@@H](O)[C@H](Oc2ccc3c(O)c(NC(=O)c4cccc(CN)c4)c(=O)oc3c2C)OC1(C)C [Compound 206] | > 100 | > 200 | > 100 | > 100 | > 50 | > 100 | > 200 | – | – | – | – | – | – | – | – | – | – | –
21 | CO[C@@H]1[C@@H](OC(N)=O)[C@@H](O)[C@H](Oc2ccc3c(O)c(NC(C)=O)c(=O)oc3c2C)OC1(C)C [Compound 102] | – | – | – | – | – | – | – | >100 | >200 | >100 | >100 | >50 | >100 | >200 | – | – | – | –
